# Results: patent EP0592876A1, “Antimycotic dermatological and cosmetic compositions” (Beiersdorf Aktiengesellschaft, priority 1992, dated 1994)
# System: Pityrosporum ovale
# Assay: agar diffusion inhibition-zone test (Hemmhof-Test)
# Format: cell-based
# Settings: Versuch 1; 1%-ige Lösung in Ethanol, 25 µl per 5 mm well; three days incubation at 37° C; three strains isolated from patients
# Method: TY-Medium 10 g Trypton + 5 g Hefeextrakt + 10 g NaCl, aufgelöst in 1000 ml H₂O, gepuffert auf pH 7,4 , autoklaviert. Testverbindung 1: Polyoxyethylen-20-stearylether Testverbindung 2: Polyoxyethylen-20-isostearylalkohol Testverbindung 3: Polyoxyethylen-21-stearylalkohl Testverbindung 4: Polyoxyethylen-5-cetyl/stearylether Testverbindung 5: Polyoxyethylen-25-Fettalkohol Testverbindung 6: Polyoxyethylen-6-cetyl/stearylether Testverbindung 7: Polyoxyethylen-C₁₂-C₁₅-Alkylether Pityrosporum ovale, isoliert von drei Patienten mit Pityrosporum-Follikulitis, Pityriasis versicolor oder seborrhoischem Ekzem wurde in einer Mischung aus 50 % TY-Medium, 30 % Olivenöl und 20 % Tween 80 suspendiert. Die drei verschiedenen Hefestämme wurden in drei parallelen Ansätzen auf einer Selektivagarplatte für pathogene Pilze (Merck AG, Darmstadt) gleichmäßig ausgespatelt. Mit Hilfe steriler Korkbohrer wurden in jede Platte mehrere kreisrunde Vertiefungen gestanzt, In die Vertiefungen mit einem Durchmesser von 5 mm wurden jeweils 25 µl der Testlösungen gegeben. Die Testlösungen stellten 1%-ige und 10%-ige Lösungen der Testsubstanzen in Ethanol dar.
# Nach dreistündiger Inkubation bei 37° C wurde das verdunstete Lösungsmittel durch je 25 µl Jojobaöl ersetzt und die Platten anschließend unter Beibehaltung der Wachstumsbedingungen drei Tage inkubiert. Während dieser Zeit diffundierten die Testsubstanzen in den die Vertiefungen umgebenden Nährboden.
# Antimycotisch wirksame Testverbindungen zeigten nach dreitägiger Inkubation einen mehr oder weniger deutlichen konzentrischen Hemmhof um die Vertiefungen. Die Größe dieser Hemmhöfe, wiedergegeben in Tabelle 1, ist bei vergleichbarer Substanzkonzentration ein Maß für die antimycotische Wirksamkeit der Testverbindungen. Tabelle 1
# Testverbindung 8 : Polyoxyethylen-[…]-Dodecylether Testverbindung 9 : Polyoxyethylen-20-Stearylether Testverbindung 10: Polyoxyethylen-20-isostearylalkohol Testverbindung 11: Polyoxyethylen-21-stearylalkohol Testverbindung 12: Polyoxyethylen-5-Cetyl/stearylether Testverbindung 13: Polyoxyethylen-25-Fettalkohol Testverbindung 14: Polyoxyethylen-6-Cetyl/Stearylether + Stearylalkohol Testverbindung 15: Polyoxyethylen-C₁₂-C₁₅-Alkylether Von den Testverbindungen 8 - 15 wurden ethanolische Lösungen der Konzentrationen 0,5 %, 1,0 %, 5,0 % und 10,0 % hergestellt und in den Hemmhof-Test eingeführt. Die Versuchsdurchführung entspricht in ihrem Ablaufe dem zu Versuch 1 geschilderten. Die Größe der betreffenden Hemmhöfe ist in Tabelle 2 wiedergegeben. Tabelle 2
row,Substance,mittlerer Hemmhof-Durchmesser
1,Polyoxyethylen-5-cetyl/stearylether [Testlösung 4],"8,5 mm"
2,Polyoxyethylen-6-cetyl/stearylether [Testlösung 6],"9,5 mm"
3,Polyoxyethylen-20-isostearylalkohol [Testlösung 2],"11,0 mm"
4,Polyoxyethylen-20-stearylether [Testlösung 1],"10,0 mm"
5,Polyoxyethylen-21-stearylalkohl [Testlösung 3],"7,0 mm"
6,Polyoxyethylen-25-Fettalkohol [Testlösung 5],"7,0 mm"
7,Polyoxyethylen-C₁₂-C₁₅-Alkylether [Testlösung 7],"9,5 mm"

# Same assay, conditions: Versuch 1; 10%-ige Lösung in Ethanol, 25 µl per 5 mm well; three days incubation at 37° C; three strains isolated from patients
row,Substance,mittlerer Hemmhof-Durchmesser
1,Polyoxyethylen-5-cetyl/stearylether [Testlösung 4],"9,5 mm"
2,Polyoxyethylen-6-cetyl/stearylether [Testlösung 6],"14,0 mm"
3,Polyoxyethylen-20-isostearylalkohol [Testlösung 2],"12,0 mm"
4,Polyoxyethylen-20-stearylether [Testlösung 1],"15,5 mm"
5,Polyoxyethylen-21-stearylalkohl [Testlösung 3],"11,0 mm"
6,Polyoxyethylen-25-Fettalkohol [Testlösung 5],"13,0 mm"
7,Polyoxyethylen-C₁₂-C₁₅-Alkylether [Testlösung 7],"15,0 mm"

# Same assay, conditions: Versuch 2; Konz. 0,5 % ethanolic solution; procedure as Versuch 1
row,Substance,mittlerer Hemmhof-Durchmesser
1,Polyoxyethylen-5-Cetyl/stearylether [Testlösung 12],"11,0 mm"
2,Polyoxyethylen-20-Stearylether [Testlösung 9],"10,7 mm"
3,Polyoxyethylen-20-isostearylalkohol [Testlösung 10],"9,0 mm"
4,Polyoxyethylen-21-stearylalkohol [Testlösung 11],"10,0 mm"
5,Polyoxyethylen-25-Fettalkohol [Testlösung 13],"10,0 mm"
6,Polyoxyethylen-??-Dodecylether [Testlösung 8],"14,0 mm"
7,Polyoxyethylen-C₁₂-C₁₅-Alkylether [Testlösung 15],"9,0 mm"

# Same assay, conditions: Versuch 2; Konz. 1,0 % ethanolic solution; procedure as Versuch 1
row,Substance,mittlerer Hemmhof-Durchmesser
1,Polyoxyethylen-5-Cetyl/stearylether [Testlösung 12],"14,0 mm"
2,Polyoxyethylen-20-Stearylether [Testlösung 9],"14,0 mm"
3,Polyoxyethylen-20-isostearylalkohol [Testlösung 10],"9,0 mm"
4,Polyoxyethylen-21-stearylalkohol [Testlösung 11],"11,7 mm"
5,Polyoxyethylen-25-Fettalkohol [Testlösung 13],"11,5 mm"
6,Polyoxyethylen-??-Dodecylether [Testlösung 8],"15,5 mm"
7,Polyoxyethylen-C₁₂-C₁₅-Alkylether [Testlösung 15],"12,7 mm"

# Same assay, conditions: Versuch 2; Konz. 5,0 % ethanolic solution; procedure as Versuch 1
row,Substance,mittlerer Hemmhof-Durchmesser
1,Polyoxyethylen-5-Cetyl/stearylether [Testlösung 12],"16,5 mm"
2,Polyoxyethylen-20-Stearylether [Testlösung 9],"18,7 mm"
3,Polyoxyethylen-20-isostearylalkohol [Testlösung 10],"15,0 mm"
4,Polyoxyethylen-21-stearylalkohol [Testlösung 11],"12,0 mm"
5,Polyoxyethylen-25-Fettalkohol [Testlösung 13],"15,7 mm"
6,Polyoxyethylen-??-Dodecylether [Testlösung 8],"18,0 mm"
7,Polyoxyethylen-C₁₂-C₁₅-Alkylether [Testlösung 15],"17,0 mm"

# Same assay, conditions: Versuch 2; Konz. 10,0 % ethanolic solution; procedure as Versuch 1
row,Substance,mittlerer Hemmhof-Durchmesser
1,Polyoxyethylen-5-Cetyl/stearylether [Testlösung 12],"16,5 mm"
2,Polyoxyethylen-20-Stearylether [Testlösung 9],"20,7 mm"
3,Polyoxyethylen-20-isostearylalkohol [Testlösung 10],"17,3 mm"
4,Polyoxyethylen-21-stearylalkohol [Testlösung 11],"12,7 mm"
5,Polyoxyethylen-25-Fettalkohol [Testlösung 13],"18,3 mm"
6,Polyoxyethylen-??-Dodecylether [Testlösung 8],"20,7 mm"
7,Polyoxyethylen-C₁₂-C₁₅-Alkylether [Testlösung 15],"20,0 mm"
